How the values were obtained:
[1] = tested on: LPS-IFN—induced nitrite production; assay: MIF-dependent nitrite production in peritoneal macrophages (Greiss assay); type: cell-based, mouse; conditions: Mus musculus, Peritoneal macrophage, LPS 10 ng/ml + interferon-γ 10 units/ml, 24 h, read-out: % Inhibition of nitrite (± SD); for inhibition at 33 µM: compound 33 μM; for inhibition at 100 µM: compound 100 μM
Method: MIF is able to induce or facilitate the expression and release of a wide variety of pro-inflammatory and/or destructive molecules, including the release of macrophage nitric oxide (NO) ^(20). A compound with the ability to inhibit the cytokine or biological function of MIF might be expected to inhibit the activation of NO production by macrophages.
C57BL6/J male mice were injected intraperitoneally with 2 ml of thioglycolate. Three days later peritoneal macrophages were collected by lavaging the peritoneum with 3 ml of cold Hank's buffered saline solution. Cells from several mice were pooled, washed and re-suspended in DMEM supplemented with 5% FCS. Cells were plated in 96 well plastic tissue culture plates at 1×10^5 cells/well. Cells were treated in triplicate wells with compound or vehicle for 1 hour in a 5% CO2 incubator at 37° C. Cells were then treated with LPS (10 ng/ml) and recombinant human interferon-γ (10 units/ml) and incubated for 24 hours. After 24 hours, 50 μl of supernatant from each well was carefully removed and transferred to ELISA plates. The production of NO was measured by analysing the concentration of nitrite in culture supernatants, as measured by the Greiss assay ^(21). The results were calculated as the percentage inhibition of nitrite concentration in compound-treated cell culture supernatants, compared to that of vehicle-treated cells.

[2] = tested on: MIF-induced proliferation of mouse NIH 3T3 fibroblasts; assay: MIF-induced proliferation in mouse fibroblasts (3H-thymidine incorporation); type: cell-based; conditions: for Mean cpm (3H-thymidine incorporation): Compound (10×^10−6M) + MIF 50 ng/ml, nil 1087, MIF + vehicle 1452
Method: The activity of compounds was studied in a bioassay utilising MIF-induced proliferation of mouse NIH 3T3 fibroblasts. […] NIH 3T3 cells were propagated in DMEM/10% foetal calf serum (FCS). Prior to experimentation, cells were seeded at 10^4 cells/well in 96-well plates in DMEM/10% FCS for 18 hours. The media was then replaced with DMEM/0.1% FCS and the cells incubated for a further 18 hr. At time point −1 hr, culture medium was replaced with DMEM/0.1% FCS and cells were treated with a compound of the invention at a final concentration of 10 μM or vehicle. At time point zero, cells were treated with MIF at a final concentration of 50 ng/ml. At time point 6 hr the cells were pulsed with 1 µCi/well of ^3H-thymidine. At time point 24 hours, cells were harvested using a semi-automated cell harvester. The radioactivity incorporated into DNA was determined by liquid scintillation counting, with results expressed as ^3H-thymidine incorporation (cpm). Statistical significance was analysed using the Mann-Whitney test.

[3] = tested on: LPS-induced serum IL-1, IL-6, and TNF; assay: Mouse endotoxic shock model (serum cytokines by ELISA); type: in vivo; conditions: for effect on serum IL-1: 5 mg/kg; for IL-1 (pg/ml), serum: 5 mg/kg i.p. 24 h and 1 h before LPS 5 mg/kg, saline 175 ± 43, LPS plus vehicle 428 ± 168; for IL-1 (pg/ml), serum / IL-6 (ng/ml), serum / TNF (pg/ml), serum: 1.5 h after LPS; for effect on serum IL-6 / effect on serum TNF: 15 mg/kg; for IL-6 (ng/ml), serum / TNF (pg/ml), serum: 15 mg/kg i.p. 24 h and 1 h before LPS 5 mg/kg; for IL-6 (ng/ml), serum: saline 4 ± 4, LPS plus vehicle 118 ± 30; for TNF (pg/ml), serum: saline 189 ± 69, LPS plus vehicle 2022 ± 1245
Text: The activity of compounds was studied in the murine endotoxic shock model. In this model, features of shock, characterised by increased serum levels of cytokines such as IL-1, tumor necrosis factor (TNF), and interleukin 6 (IL-6), are induced by the injection of bacterial lipoloysaccharide (LPS). The in vivo production of IL-1, IL-6, and TNF in response to endotoxin has been previously shown to be dependent on MIF ^(23).
Groups of four mice were used in each experiment. Endotoxaemia was induced by intra-peritoneal injection of lipopolysaccharide (LPS) (5 mg/kg) in 300 μl saline. Mice injected with saline alone were used as a control group. Treatments were administered by intra-peritoneal injection at intervals 24 hours and 1 hour before intra-peritoneal LPS injection. Mice were treated with saline, compounds dissolved in DMSO/saline vehicle at a dose of 5-15 mg/kg body weight, or vehicle (containing matching concentrations of DMSO).
After 1.5 hours mice were humanely killed by CO2 inhalation then neck dislocation. Serum was obtained from blood obtained by cardiac puncture prior to death and measured for the concentration of cytokines including IL-1, TNF, and/or IL-6, by ELISA. Statistical significance was analysed using the Mann-Whitney test.

Compound: COC(=O)CCCC1(c2ccc(F)cc2)OCCO1 [Compound 9, Methyl 4-[2-(4-fluorophenyl)-1,3-dioxolan-2-yl]butanoate]
- inhibition at 1 µM ([1]; compound 1 μM): 16 ± 1%
- Mean cpm (3H-thymidine incorporation) [2]: 1071 cpm

Compound: OCCCCC1(c2ccc(F)cc2)OCCO1 [Compound 10, 4-[2-(4-Fluorophenyl)-1,3-dioxolan-2-yl]butan-1-ol]
- Mean cpm (3H-thymidine incorporation) [2]: 1187 cpm

Compound: CCCCC1(c2ccc(Br)cc2)OCCO1 [Compound 11, 2-(4′-Bromophenyl)-2-butyl-1,3-dioxolane]
- inhibition at 33 µM [1]: 19 ± 1%
- Mean cpm (3H-thymidine incorporation) [2]: 1245 cpm

Compound: COc1ccc(-c2cnn(CCC(C)C)c2)cc1 [Compound 12, 4-(4-Methoxyphenyl)-1-(3-methylbutyl)-1H-pyrazole]
- effect on serum IL-1 [3]: inhibitory effect
- IL-1 (pg/ml), serum [3]: 286 ± 102 pg/mL
- effect on serum IL-6 [3]: inhibitory effect
- effect on serum TNF [3]: inhibitory effect
- IL-6 (ng/ml), serum [3]: 80 ± 16 ng/mL
- TNF (pg/ml), serum [3]: 1636 ± 468 pg/mL
- inhibition at 100 µM [1]: 78 ± 9%

Compound: COc1ccc(-c2ccc(OC(F)(F)F)cc2)c(OC)n1 [Compound 14, 2,6-Dimethoxy-3-[4-(trifluoromethoxy)phenyl]pyridine]
- inhibition at 100 µM [1]: 27 ± 3%
- Mean cpm (3H-thymidine incorporation) [2]: 1420 cpm

Compound: c1csc(-c2ccc(C3NCCS3)cc2)c1 (stereo not drawn) [Compound 15, 2-[4-(2-Thienyl)phenyl]-1,3-thiazolane]
- inhibition at 100 µM [1]: 12 ± 1%
- Mean cpm (3H-thymidine incorporation) [2]: 955.6 cpm

Compound: CCC1(c2ccc(OC)cc2)OCCO1 [Compound 16, 2-Ethyl-2-(4-methoxyphenyl)-1,3-dioxolane]
- Mean cpm (3H-thymidine incorporation) [2]: 1335 cpm

Compound: Cc1ccc(C2(C)SCCS2)cc1 [Compound 18, 2-Methyl-2-(4-methylphenyl)-1,3-dithiolane]
- inhibition at 100 µM [1]: 40 ± 1%
- significant inhibition of MIF-induced proliferation ([2]; 10 μM, P<0.05, FIG. 9): significant inhibition

Compound: CCCCCCC1(c2ccc(C)cc2)OCCO1 [Compound 19, 2-Hexyl-2-(4-methylphenyl)-1,3-dioxolane]
- Mean cpm (3H-thymidine incorporation) [2]: 1209 cpm

Compound: CC1(c2ccc(Cl)cc2)OCCCO1 [Compound 20, 2-(4-Chlorophenyl)-2-methyl-1,3-dioxane]
- Mean cpm (3H-thymidine incorporation) [2]: 1214 cpm

Compound: CC1(c2ccc(Cl)cc2)OCCO1 [Compound 21, 2-(4-Chlorophenyl)-2-methyl-1,3-dioxolane]
- Mean cpm (3H-thymidine incorporation) [2]: 1220 cpm

Compound: Cc1ccc(C2(C)OCCCO2)cc1 [Compound 22, 2-Methyl-2-(4-methylphenyl)-1,3-dioxane]
- Mean cpm (3H-thymidine incorporation) [2]: 1310 cpm

Compound: Cc1ccc(C2(C)OCCO2)cc1 [Compound 23, 2-Methyl-2-(4-methylphenyl)-1,3-dioxolane]
- Mean cpm (3H-thymidine incorporation) [2]: 1344 cpm

Compound: CC1(c2ccc(Cl)cc2)SCCS1 [Compound 24, 2-(4-Chlorophenyl)-2-methyl-1,3-dithiolane]
- inhibition at 33 µM [1]: 21 ± 2%
- Mean cpm (3H-thymidine incorporation) [2]: 1318 cpm

Compound: CC1(c2ccc([N+](=O)[O-])cc2)OCCO1 [Compound 25, 2-(4-Nitrophenyl)-2-methyl-1,3-dioxolane]
- inhibition at 33 µM [1]: 7 ± 1%
- Mean cpm (3H-thymidine incorporation) [2]: 1117 cpm

Compound: CC1(c2ccc([N+](=O)[O-])cc2)OCCCO1 [Compound 26, 2-(4-Nitrophenyl)-2-methyl-1,3-dioxane]
- Mean cpm (3H-thymidine incorporation) [2]: 1141 cpm

Compound: COc1ccc(C2OCCS2)cc1 (stereo not drawn) [Compound 27, 2-(4-Methoxyphenyl)-1,3-oxathiolane]
- inhibition at 100 µM [1]: 24 ± 1%

Compound: COc1cc(C2OCCS2)cc(OC)c1OC (stereo not drawn) [Compound 28, 2-(3,4,5-Trimethoxyphenyl)-1,3-oxathiolane]
- Mean cpm (3H-thymidine incorporation) [2]: 1219 cpm

Compound: COc1cc(C2OCCS2)ccc1O (stereo not drawn) [Compound 29, 2-Methoxy-4-(1,3-oxathiolan-2-yl)phenol]
- inhibition at 100 µM [1]: 9 ± 1%
- Mean cpm (3H-thymidine incorporation) [2]: 1157 cpm

Compound: N#Cc1ccc(C2OCCS2)cc1 (stereo not drawn) [Compound 30, 4-(1,3-Oxathiolan-2-yl)benzonitrile]
- inhibition at 100 µM [1]: 31 ± 2%

Compound: CCC1(c2ccc(Br)cc2)OCCS1 (stereo not drawn) [Compound 31, 2-(4-Bromophenyl)-2-ethyl-1,3-oxathiolane]
- inhibition at 100 µM [1]: 35 ± 3%

Compound: CC1CSC(c2ccc(C#N)cc2)O1 (stereo not drawn) [Compound 32, 4-(5-Methyl-1,3-oxathiolan-2-yl)benzonitrile]
- inhibition at 100 µM [1]: 14 ± 4%
- Mean cpm (3H-thymidine incorporation) [2]: 1196 cpm

Compound: c1csc(-c2ccc(C3OCCS3)cc2)c1 (stereo not drawn) [Compound 33, 2-(4-Thien-2-ylphenyl)-1,3-oxathiolane]
- effect on serum IL-1 [3]: inhibitory effect
- IL-1 (pg/ml), serum [3]: 360 ± 72 pg/mL
- effect on serum IL-6 [3]: inhibitory effect
- effect on serum TNF [3]: inhibitory effect
- IL-6 (ng/ml), serum [3]: 95 ± 14 ng/mL
- TNF (pg/ml), serum [3]: 1152 ± 317 pg/mL
- inhibition at 100 µM [1]: 47 ± 4%

Compound: CCCCCCCCC1(c2ccc(O)cc2)OC(C)CS1 (stereo not drawn) [Compound 34, 4-(5-Methyl-2-octyl-1,3-oxathiolan-2-yl)phenol]
- inhibition at 100 µM [1]: 24 ± 1%

Compound: CC1CSC(c2ccc(F)c(C#N)c2)O1 (stereo not drawn) [Compound 35, 2-Fluoro-5-(5-methyl-1,3-oxathiolan-2-yl)benzenecarbonitrile]
- inhibition at 100 µM [1]: 18 ± 2%

Compound: COc1ccc(-c2ccc(OC(F)(F)F)cc2)cc1 [Compound 36, 4-Methoxy-4′-(trifluoromethoxy)-1,1′-biphenyl]
- inhibition at 100 µM [1]: 57 ± 1%
- Mean cpm (3H-thymidine incorporation) [2]: 1033 cpm

Compound: COc1ccc(-c2ccc(C(F)(F)F)cc2)c(OC)n1 [Compound 37, 2,6-Dimethoxy-3-[4-(trifluoromethyl)phenyl]pyridine]
- inhibition at 100 µM [1]: 24 ± 1%
- Mean cpm (3H-thymidine incorporation) [2]: 1045 cpm

Compound: CCCCC1(c2ccc(Br)cc2)OCCC(CCC)S1 (stereo not drawn) [Compound 38, 2-(4-bromophenyl)-2-butyl-4-propyl-1,3-oxathiane]
- inhibition at 100 µM [1]: 35%

Compound: CCCCC1(c2ccc(Br)cc2)OCCC(CCC)S1 (stereo not drawn) [Compound 39, 2-(4-bromophenyl)-2-butyl-4-propyl-1,3-oxathiane]
- Mean cpm (3H-thymidine incorporation) [2]: 956.1 cpm

Compound: N#Cc1ccc(C2OCCO2)cc1 [Compound 40, 4-(1,3-Dioxolan-2-yl)benzenecarbonitrile]
- inhibition at 100 µM [1]: 7 ± 2%
- Mean cpm (3H-thymidine incorporation) [2]: 1143 cpm

Compound: CCCCCCC1(c2cc(OC)cc(OC)c2)OCCO1 [Compound 41, 2-(3,5-Dimethoxyphenyl)-2-hexyl-1,3-dioxolane]
- inhibition at 100 µM [1]: 26 ± 1%

Compound: CCC1(c2ccc(Cl)cc2)OCC(C)O1 (stereo not drawn) [Compound 42, 2-(4-Chlorophenyl)-2-ethyl-4-methyl-1,3-dioxolane]
- Mean cpm (3H-thymidine incorporation) [2]: 1168 cpm

Compound: CCC1(CC)COC(c2ccc(F)c(C#N)c2)OC1 [Compound 43, 5-(5,5-Diethyl-1,3-dioxan-2-yl)-2-fluorobenzenecarbonitrile]
- inhibition at 100 µM [1]: 34 ± 1%
- Mean cpm (3H-thymidine incorporation) [2]: 1106 cpm

Compound: Clc1ccc(C2=NCCO2)cc1 [Compound 44, 2-(4-Chlorophenyl)-4,5-dihydro-1,3-oxazole]
- Mean cpm (3H-thymidine incorporation) [2]: 1294 cpm

Compound: Cc1ccc(C2=NCCO2)cc1 [Compound 45, 2-(4-Methylphenyl)-4,5-dihydro-1,3-oxazole]
- inhibition at 100 µM [1]: 7 ± 1%

— US7863313B2, “Methods for the treatment of inflammatory diseases” (Cortical PTY LTD, priority 2003, dated 2011)
